# The source made the active and inactive calls. No cut-off for these calls is given here.
# Tests used:
# [1] = biological target: T1, Sigma non-opioid intracellular receptor 1 (Cavia porcellus, UniProt Q60492); experiment: Displacement of [3H]-pentazocine from sigma1 receptor in guinea pig brain membrane at 1 uM by liquid scintillation counting analysis relative to control; type: cell membranes
# [2] = tested on: Mus musculus; experiment: Antinociceptive activity in C57BL/6J mouse assessed as reduction in morphine-induced nociceptive response by measuring morphine ED50 at 30 mg/kg, ip pre-administered with compound followed by morphine addition measured after 30 mins by hot plate test (reference value: 4.3 mg/kg); type: functional
# [3] = tested on: Mus musculus; experiment: Reversal of morphine tolerance in morphine tolerant C57BL/6J mouse assessed as maximum possible effect of antinociception at 30 mg/kg, ip pre-treated with morphine followed by compound addition on day 4 by hot plate test (reference value: 5.4%); type: functional
# [4] = tested on: Mus musculus; experiment: Synergistic antinociceptive activity in C57BL/6J mouse assessed as reduction in morphine-induced nociceptive response upto 60 mg/kg, ip pre-administered with compound followed by morphine addition measured after 30 mins by hot plate test; type: functional, organism-based
# [5] = tested on: Mus musculus; experiment: Synergistic antinociceptive activity in C57BL/6J mouse assessed as reduction in morphine-induced nociceptive response at 30 mg/kg, ip pre-administered with compound followed by morphine addition measured after 30 mins in presence of naloxone by hot plate test; type: functional, organism-based
# [6] = AUClast in C57BL/6J mouse at 10 mg/kg, ip measured after 24 hrs by LC-MS/MS analysis; type: ADME, organism-based; parameters: time 24 hrs, dose 10 mg/kg, route ip; conditions: in vivo
# [7] = Ratio of drug concentration in brain to plasma in C57BL/6J mouse at 10 mg/kg, ip measured after 1 hrs by LC-MS/MS analysis; type: ADME, organism-based; conditions: read-out: BPR
# [8] = Half life in C57BL/6J mouse at 10 mg/kg, ip measured after 24 hrs by LC-MS/MS analysis; type: ADME, organism-based; conditions: in vivo
# [9] = biological target: Sigma non-opioid intracellular receptor 1 (Homo sapiens, UniProt Q99720); experiment: Antagonist activity at sigma1 receptor (unknown origin)
# [10] = Drug concentration in brain of C57BL/6J mouse at 10 mg/kg, ip measured after 4 hrs by LC-MS/MS analysis; type: ADME, organism-based; conditions: read-out: Drug uptake
# [11] = Observed AUC(0 to infinity) in C57BL/6J mouse at 10 mg/kg, ip measured after 24 hrs by LC-MS/MS analysis; type: ADME, organism-based; parameters: time 24 hrs, dose 10 mg/kg, route ip; conditions: in vivo
# [12] = Ratio of drug concentration in brain to plasma in C57BL/6J mouse at 10 mg/kg, ip measured after 4 hrs by LC-MS/MS analysis; type: ADME, organism-based; conditions: read-out: BPR
# [13] = Drug concentration in plasma of C57BL/6J mouse at 10 mg/kg, ip measured after 1 hrs by LC-MS/MS analysis; type: ADME, organism-based
# [14] = Drug concentration in brain of C57BL/6J mouse at 10 mg/kg, ip measured after 1 hrs by LC-MS/MS analysis; type: ADME, organism-based; conditions: read-out: Drug uptake
# [15] = Drug concentration in plasma of C57BL/6J mouse at 10 mg/kg, ip measured after 4 hrs by LC-MS/MS analysis; type: ADME, organism-based
# [16] = Tmax in C57BL/6J mouse at 10 mg/kg, ip measured after 24 hrs by LC-MS/MS analysis; type: ADME, organism-based; conditions: in vivo
# [17] = tested on: Mus musculus; experiment: Synergistic antinociceptive activity in C57BL/6J mouse assessed as reduction in morphine-induced nociceptive response at 30 mg/kg, ip pre-administered with compound followed by morphine addition measured after 30 mins in presence of PRE-084 by hot plate test; type: functional, organism-based
# [18] = tested on: Mus musculus; experiment: Antinociceptive activity in ip dosed C57BL/6J mouse assessed as reduction in morphine-induced nociceptive response pre-administered with compound followed by morphine addition measured after 30 mins by hot plate test; type: functional, organism-based; conditions: dose 0-60 mg/kg
# [19] = biological target: T1, Sigma non-opioid intracellular receptor 1; experiment: Displacement of [3H]-pentazocine from sigma1 receptor in guinea pig brain membrane assessed as inhibition constant in presence of phenytoin by liquid scintillation counting analysis; type: cell membranes
# [20] = biological target: Sigma intracellular receptor 2 (Homo sapiens, UniProt Q5BJF2); experiment: Antagonist activity at sigma2 receptor (unknown origin)
# [21] = tested on: Mus musculus; experiment: Reversal of morphine tolerance in morphine tolerant C57BL/6J mouse assessed as maximum possible effect of antinociception at 30 mg/kg, ip pre-treated with morphine followed by compound addition on day 4 in presence of PRE-084 by hot plate test; type: functional, organism-based
# [22] = Observed MRT(0 to infinity) in C57BL/6J mouse at 10 mg/kg, ip measured after 24 hrs by LC-MS/MS analysis; type: ADME, organism-based; conditions: in vivo
# [23] = biological target: Mu-type opioid receptor (Homo sapiens) (UniProt P35372); experiment: Displacement of [3H]-DAMGO from human MOR expressed in CHO cells at 1 uM incubated for 90 mins by beta-scintillation counting analysis; type: cell-based
# [24] = tested on: Mus musculus; experiment: Antinociceptive activity in C57BL/6J mouse assessed as reduction in nociceptive response at 30 mg/kg, ip measured after 30 mins by hot plate test; type: functional, organism-based
# [25] = Cmax in C57BL/6J mouse at 10 mg/kg, ip measured after 24 hrs by LC-MS/MS analysis; type: ADME, organism-based; parameters: time 24 hrs, dose 10 mg/kg, route ip; conditions: in vivo
# T1 sequence (Q60492 whole entry): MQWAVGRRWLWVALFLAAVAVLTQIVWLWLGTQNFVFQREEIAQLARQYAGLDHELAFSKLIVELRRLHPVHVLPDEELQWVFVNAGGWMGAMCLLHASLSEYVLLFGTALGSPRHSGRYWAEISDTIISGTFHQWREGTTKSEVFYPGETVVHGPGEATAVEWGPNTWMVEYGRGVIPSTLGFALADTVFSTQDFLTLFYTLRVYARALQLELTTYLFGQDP
# Chain of Sigma intracellular receptor 2 (Q5BJF2 whole entry): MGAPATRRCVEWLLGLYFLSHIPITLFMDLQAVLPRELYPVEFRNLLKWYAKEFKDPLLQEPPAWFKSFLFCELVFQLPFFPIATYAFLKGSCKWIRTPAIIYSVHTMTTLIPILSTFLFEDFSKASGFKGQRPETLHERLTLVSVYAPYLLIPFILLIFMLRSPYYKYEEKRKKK
# Chain of Mu-type opioid receptor (Homo sapiens) (P35372 whole entry): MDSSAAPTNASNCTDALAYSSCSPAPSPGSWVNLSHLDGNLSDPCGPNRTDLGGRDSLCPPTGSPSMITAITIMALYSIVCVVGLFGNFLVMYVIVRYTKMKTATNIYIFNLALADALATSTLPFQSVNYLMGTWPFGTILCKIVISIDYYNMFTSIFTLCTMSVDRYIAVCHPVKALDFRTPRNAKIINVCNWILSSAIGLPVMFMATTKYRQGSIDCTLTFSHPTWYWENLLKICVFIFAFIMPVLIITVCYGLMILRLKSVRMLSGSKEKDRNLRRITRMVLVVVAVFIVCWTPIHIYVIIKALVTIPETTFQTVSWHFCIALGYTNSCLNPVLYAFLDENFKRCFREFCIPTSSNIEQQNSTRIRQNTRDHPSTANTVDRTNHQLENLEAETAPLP
# Chain of Sigma non-opioid intracellular receptor 1 (Homo sapiens, UniProt Q99720) (Q99720 whole entry): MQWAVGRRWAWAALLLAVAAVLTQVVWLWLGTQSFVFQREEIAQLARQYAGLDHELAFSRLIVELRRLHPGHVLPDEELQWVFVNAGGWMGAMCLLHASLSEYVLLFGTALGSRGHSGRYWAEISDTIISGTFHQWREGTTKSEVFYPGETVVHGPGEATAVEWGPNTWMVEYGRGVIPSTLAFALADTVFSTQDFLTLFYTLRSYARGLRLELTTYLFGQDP
smiles,measurement,setting,value
O=C1CC2(CN(CCC3CCCCC3)C2)CN1c1ccc(F)cc1,Ki,[1],38.8 nM
O=C1CC2(CN(CCCc3ccc(F)cc3)C2)CN1c1ccccc1,Ki,[1],16.8 nM
Cc1cccc(CCN2CC3(CC(=O)N(c4ccc(F)cc4)C3)C2)c1,Ki,[1],47.6 nM
O=C1CC2(CN(CCc3ccccc3)C2)CN1c1ccccc1,Ki,[1],175 nM
O=C1CC2(CN(CCCc3ccccc3F)C2)CN1c1ccccc1,Ki,[1],44.5 nM
Cc1cccc(N2CC3(CC2=O)CN(CCCc2ccccc2)C3)c1,Ki,[1],49.7 nM
Cc1cc(OCCN2CCOCC2)nn1-c1ccc2ccccc2c1,Activity,[2],inactive
same,Activity,[3],inactive
same,Activity,[4],inactive
same,Ki,[1],12.9 nM
O=C1CC2(CN(CCc3ccc4ccccc4c3)C2)CN1c1ccccc1,Ki,[1],60.4 nM
O=C1CC2(CN(CCCc3ccccc3)C2)CN1c1ccc(F)cc1,Ki,[1],34.9 nM
O=C1CC2(CN(CCCc3ccccc3)C2)CN1Cc1ccccc1,Ki,[1],83.7 nM
O=C1CC2(CN(CCCc3cccc(F)c3)C2)CN1c1ccccc1,Ki,[1],26.8 nM
O=C1CC2(CN(CCC3CCCCC3)C2)CN1c1ccccc1,Ki,[1],42.7 nM
Cc1ccc(CCCN2CC3(CC(=O)N(c4ccccc4)C3)C2)cc1,ED50,[2]; 0.5 h,2.3 mg/kg
same,Activity,[5],inactive
same,AUC(0-t) at 24 h,[6],2240 ng·h/mL
same,Kp at 1 h,[7],7.38
same,half-life,[8],1.42 h
same,IC50,[9],19.1 nM
same,concentration at 4 h,[10],609 ng/g
same,AUC(0-inf),[11],2290 ng·h/mL
same,Kp at 4 h,[12],7.8
same,concentration at 1 h,[13],513 ng/mL
same,concentration at 1 h,[14],3790 ng/g
same,concentration at 4 h,[15],78 ng/mL
same,Tmax,[16],0.25 h
same,MPE,[3],70.5%
same,Activity,[17],inactive
same,Activity,[18],Dose-Dependent Effect
same,Ki,[19],37.2 nM
same,IC50,[20],227 nM
same,Activity,[21],inactive
same,MRT inf,[22],2.08 h
same,Activity,[23],16.5%
same,Activity,[24],inactive
same,Ki,[1],14.5 nM
same,Cmax,[25],990 ng/mL
CC(Cc1ccccc1)N1CC2(CC(=O)N(c3ccccc3)C2)C1 (stereo not given),Ki,[1],40.5 nM
O=C1CC2(CN(CCCc3ccccc3)C2)CN1c1ccccc1,Ki,[1],48.7 nM
Cc1ccc(N2CC3(CC2=O)CN(CCCc2ccccc2)C3)cc1,Ki,[1],68.3 nM
CC(Cc1ccccc1)N1CC2(CC(=O)N(c3ccc(F)cc3)C2)C1 (stereo not given),Ki,[1],181 nM
O=C1CC2(CN(CCc3cccc(F)c3)C2)CN1c1ccccc1,Ki,[1],393 nM
Cc1cccc(CCCN2CC3(CC(=O)N(c4ccccc4)C3)C2)c1,Ki,[1],33 nM

# Source: ChEMBL document CHEMBL5346905, “2,6-diazaspiro[3.4]octan-7-one derivatives as potent sigma-1 receptor antagonists that enhanced the antinociceptive effect of morphine and rescued morphine tolerance” (Eur J Med Chem, 2023)
